Publication PMC8451667 (Emerging Microbes & Infections, 2021)
Like-named read-outs stand apart in the source and are kept apart here.

Columns and labels:
in vivo = conditions: male, BALB/c, mouse, ip, 50 mg/kg
[1] = tested on: several contemporary influenza A viruses; assay: microbe, parasite or virus in culture; format: cell-based; conditions: read-out: EC50 values against all IAVs tested
[2] = mouse, in vivo
in vitro = conditions: dog
Ca/04 (H1N1) virus = tested on: Ca/04 (H1N1) virus; design: species or system mice; conditions: mouse, in vivo
[3] = tested on: A/California/04/2009 (H1N1) virus; assay: microbe, parasite or virus in culture; format: cell-based, Influenza A virus; conditions: for EC50: Influenza A virus
MDCK cells = conditions: cited from earlier work

Structure (SMILES)	AUC(0-inf) (in vivo) [µM·h]	CL/F (in vivo) [mL/min/kg]	Cmax (in vivo) [µM]	Tmax (in vivo) [h]	Vd/F (in vivo) [L/kg]	half-life (in vivo) [h]	EC50 [1] [nM]	Histopathology of brain, livers, kidneys, lungs and hearts [2]	CC50 (in vitro) [nM]	Clinical signs: activity (Ca/04 (H1N1) virus)	Clinical signs: physical appearance (Ca/04 (H1N1) virus)	Influenza virus nucleoprotein in lungs by immunostaining (Ca/04 (H1N1) virus)	Loss of initial body weight (Ca/04 (H1N1) virus) [%]	Section with pneumocyte type 2 hyperplasia and hypertrophy, alveolar oedema and inflammation (Ca/04 (H1N1) virus)	Survival (Ca/04 (H1N1) virus) [%]	Virus titers in lung and NT by TCID50 vs Ca/04-vehicle group (Ca/04 (H1N1) virus)	Combination effect with oseltamivir in cell culture [3]	EC50 ([3]; H1N1, read-out: EC50 alone UAWJ280 (μM)) [µM]	CC50 (MDCK cells) [nM]	EC50 ([3]; H1N1, read-out: EC50 alone Oseltamivir (nM)) [µM]
[2H]C(NC12CC3CC(CC(O)(C3)C1)C2)c1ccc(I)s1 (stereo not shown) [UAWJ280, 3-{[(5-iodothiophen-2-yl)(D)methyl]amino}adamantan-1-ol]	11.5	187	5.61	0.42	38 ± 4.4	2.34	200 to 600	no signs of toxicity	> 100000	minor changes in activity	mild clinical signs	moderate amounts of virus nucleoprotein	~15	up to 80%	90	trend towards reduced virus load	strong synergistic antiviral effect	0.3 ± 0.018	–	–
OC12CC3CC(C1)CC(NCc1ccc(I)s1)(C3)C2 [UAWJ106]	–	–	–	–	–	–	–	–	–	–	–	–	–	–	–	–	–	–	> 100000	–
CCOC(=O)C1=C[C@@H](OC(CC)CC)[C@H](NC(C)=O)[C@@H](N)C1 [Oseltamivir, Oseltamivir phosphate, reference compound]	–	–	–	–	–	–	–	no signs of toxicity	–	remained alert	mild clinical signs	mild-moderate amounts of viral antigens	~15	–	85	trend towards reduced virus load	–	–	–	0.00177 ± 0.00011
CCC(CC)O[C@@H]1C=C(C(=O)O)C[C@H](N)[C@H]1NC(C)=O [Oseltamivir carboxylate]	–	–	–	–	–	–	–	–	–	–	–	–	–	–	–	–	–	–	> 20000	–
